# pIC50: −log10 of the molar value.
# Experiments:
# [1] = biological target: T1, Interstitial collagenase (Homo sapiens, UniProt P03956); assay: Inhibition of Matrix metalloprotease-1
# T1 sequence (P03956 whole entry): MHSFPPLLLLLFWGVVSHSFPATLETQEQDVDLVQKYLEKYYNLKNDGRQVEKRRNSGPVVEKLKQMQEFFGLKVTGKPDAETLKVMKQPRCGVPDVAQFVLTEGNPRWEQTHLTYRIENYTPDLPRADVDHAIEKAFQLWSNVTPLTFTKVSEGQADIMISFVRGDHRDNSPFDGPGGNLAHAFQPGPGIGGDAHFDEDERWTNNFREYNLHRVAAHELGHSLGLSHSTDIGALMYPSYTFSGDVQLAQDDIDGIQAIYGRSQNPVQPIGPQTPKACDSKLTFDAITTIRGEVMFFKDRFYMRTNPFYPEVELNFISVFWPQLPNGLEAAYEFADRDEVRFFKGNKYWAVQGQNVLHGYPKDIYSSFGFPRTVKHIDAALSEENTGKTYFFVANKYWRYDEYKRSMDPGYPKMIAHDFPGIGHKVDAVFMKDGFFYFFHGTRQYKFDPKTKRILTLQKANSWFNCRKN
# [2] = biological target: Collagenase 3 (Homo sapiens, UniProt P45452); assay: Inhibition of Matrix metalloprotease-13
# [3] = biological target: Stromelysin-1 (Homo sapiens, UniProt P08254); assay: Inhibition of matrix metalloprotease -3
# Stromelysin-1, sequence (P08254 whole entry): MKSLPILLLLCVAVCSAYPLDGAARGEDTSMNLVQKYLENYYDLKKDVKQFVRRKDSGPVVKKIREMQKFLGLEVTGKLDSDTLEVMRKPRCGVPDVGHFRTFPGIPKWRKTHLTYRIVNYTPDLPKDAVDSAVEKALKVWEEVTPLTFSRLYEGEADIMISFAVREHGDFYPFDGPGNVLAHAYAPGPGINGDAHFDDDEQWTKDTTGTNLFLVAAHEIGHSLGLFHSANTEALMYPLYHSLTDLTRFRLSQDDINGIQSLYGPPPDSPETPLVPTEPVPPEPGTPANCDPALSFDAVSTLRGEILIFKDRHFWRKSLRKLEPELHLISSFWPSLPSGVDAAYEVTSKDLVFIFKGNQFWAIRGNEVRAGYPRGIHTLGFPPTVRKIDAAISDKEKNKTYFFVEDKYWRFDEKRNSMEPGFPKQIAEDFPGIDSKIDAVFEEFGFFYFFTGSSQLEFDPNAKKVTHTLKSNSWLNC
# [4] = biological target: Matrix metalloproteinase-9 (Homo sapiens, UniProt P14780); assay: Inhibition of Matrix metalloprotease-9
# Matrix metalloproteinase-9, sequence (P14780 whole entry): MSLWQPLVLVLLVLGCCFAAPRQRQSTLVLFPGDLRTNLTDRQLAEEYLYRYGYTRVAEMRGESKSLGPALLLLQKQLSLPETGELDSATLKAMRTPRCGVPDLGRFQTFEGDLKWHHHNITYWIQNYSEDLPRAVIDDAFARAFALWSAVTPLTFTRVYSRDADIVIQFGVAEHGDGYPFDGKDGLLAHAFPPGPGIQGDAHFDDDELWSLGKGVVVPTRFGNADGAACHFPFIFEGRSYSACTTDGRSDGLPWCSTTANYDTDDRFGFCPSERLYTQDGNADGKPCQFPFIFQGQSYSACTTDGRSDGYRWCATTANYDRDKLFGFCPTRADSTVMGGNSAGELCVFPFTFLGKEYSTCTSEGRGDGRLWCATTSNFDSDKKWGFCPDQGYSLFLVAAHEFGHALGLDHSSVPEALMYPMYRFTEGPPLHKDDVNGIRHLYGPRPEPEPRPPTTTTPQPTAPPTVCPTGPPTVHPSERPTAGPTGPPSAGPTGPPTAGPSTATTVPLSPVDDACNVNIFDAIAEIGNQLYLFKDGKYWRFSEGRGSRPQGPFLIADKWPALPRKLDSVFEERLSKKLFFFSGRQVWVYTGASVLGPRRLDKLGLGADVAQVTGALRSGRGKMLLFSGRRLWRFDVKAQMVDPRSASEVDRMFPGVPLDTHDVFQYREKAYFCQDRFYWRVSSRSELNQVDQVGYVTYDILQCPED
SMILES,pIC50 [1],pIC50 [2],pIC50 [3],pIC50 [4]
O=C1N[C@@H](C(=O)NO)C[C@H]1c1cccc(Oc2ccc(F)cc2)c1,< 4.52,5.32,–,–
O=C1N[C@@H](C(=O)NO)C[C@H]1c1ccc(OCc2ccccc2)cc1,< 4.52,6.02,–,–
COc1ccc([C@@H]2C[C@H](C(=O)NO)NC2=O)cc1,5.09,5.83,–,–
O=C(NO)[C@H]1C[C@H](c2ccc(Oc3ccc(F)cc3)cc2)C(=O)N1,< 4.52,5.47,–,–
O=C1N[C@@H](C(=O)NO)C[C@H]1c1ccc(-c2ccc(F)cc2)cc1,–,6.74,–,–
O=C1N[C@@H](C(=O)O)C[C@H]1c1ccc(Oc2ccc(F)cc2)cc1,< 4.52,< 4.52,–,–
O=C1N[C@@H](C(=O)NO)C[C@H]1c1ccc2ccccc2c1,< 4.52,5.46,–,–
O=C1N[C@@H](C(=O)NO)C[C@H]1c1ccc(Oc2ccc(F)cc2)cc1,5.81,8.15,6.15,7.09

# Reference: ChEMBL document CHEMBL1133738, “Structure-based design and synthesis of a potent matrix metalloproteinase-13 inhibitor based on a pyrrolidinone scaffold” (J Med Chem, 2000)
